Earlier results in patent publication US20060078541A1, “Method and formula for stem cells' stimulation, targeting release, trafficking and homing” (priority 2004, published 2006).

Conditions: in vivo

For `[Cs+]` [Cesium ions], the biological half life (human) is given as 50-60 days and the assimilated is given as roughly 100%.
